Data taken from ChEMBL document CHEMBL1201862, “PubChem BioAssay data set” (2004).
The source made the active and inactive calls.

Assays:
[1] = target: T1, Voltage-gated N-type calcium channel alpha-1B subunit/Amyloid beta A4 precursor protein-binding family A member 1 (Homo sapiens, UniProt Q00975+Q02410); type: protein assay
[2] = target: T1, Voltage-gated N-type calcium channel alpha-1B subunit/Amyloid beta A4 precursor protein-binding family A member 1; type: protein assay; remark: listed apart in the source
[3] = target: T2, Short transient receptor potential channel 4 (Mus musculus, UniProt Q9QUQ5); assay: mouse TRPC4 channel inhibitors, dose response, cell-based, HEK293 TRPC4/mu-opioid, Fluo-4 calcium (AID 434942); type: functional;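 note: potency of inhibitors blocking the TRPC4 calcium response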
T2 sequence (Q9QUQ5 whole entry): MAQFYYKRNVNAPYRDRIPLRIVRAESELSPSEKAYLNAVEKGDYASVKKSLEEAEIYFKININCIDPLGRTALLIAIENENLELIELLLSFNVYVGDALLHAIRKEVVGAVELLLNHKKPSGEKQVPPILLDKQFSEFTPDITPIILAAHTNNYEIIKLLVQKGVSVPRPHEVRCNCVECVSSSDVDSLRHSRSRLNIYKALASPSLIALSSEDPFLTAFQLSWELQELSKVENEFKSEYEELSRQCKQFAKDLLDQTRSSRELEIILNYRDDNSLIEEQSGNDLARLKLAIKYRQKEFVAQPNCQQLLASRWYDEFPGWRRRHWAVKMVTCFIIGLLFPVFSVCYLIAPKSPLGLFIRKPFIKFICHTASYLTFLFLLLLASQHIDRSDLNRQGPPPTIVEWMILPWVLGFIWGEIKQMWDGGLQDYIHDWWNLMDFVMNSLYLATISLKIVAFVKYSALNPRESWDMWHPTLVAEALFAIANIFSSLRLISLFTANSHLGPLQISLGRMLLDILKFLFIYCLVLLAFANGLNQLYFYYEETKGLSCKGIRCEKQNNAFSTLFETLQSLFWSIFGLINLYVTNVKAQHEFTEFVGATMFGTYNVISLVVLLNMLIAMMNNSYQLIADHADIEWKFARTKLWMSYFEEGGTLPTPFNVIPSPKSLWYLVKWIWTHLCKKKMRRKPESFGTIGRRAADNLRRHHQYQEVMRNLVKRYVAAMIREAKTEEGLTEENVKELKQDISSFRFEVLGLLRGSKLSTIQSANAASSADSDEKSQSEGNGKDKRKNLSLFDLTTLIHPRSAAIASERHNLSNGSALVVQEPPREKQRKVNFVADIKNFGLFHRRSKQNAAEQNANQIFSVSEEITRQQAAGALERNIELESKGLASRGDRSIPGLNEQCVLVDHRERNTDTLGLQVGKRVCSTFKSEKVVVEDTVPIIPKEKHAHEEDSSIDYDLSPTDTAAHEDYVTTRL

[4] = test system: Vero; assay: cells; type: functional, cell-based; conditions: Chlorocebus sabaeus
[5] = target: Glyceraldehyde-3-phosphate dehydrogenase (Homo sapiens, UniProt P04406)
Sequence of Glyceraldehyde-3-phosphate dehydrogenase (P04406 whole entry): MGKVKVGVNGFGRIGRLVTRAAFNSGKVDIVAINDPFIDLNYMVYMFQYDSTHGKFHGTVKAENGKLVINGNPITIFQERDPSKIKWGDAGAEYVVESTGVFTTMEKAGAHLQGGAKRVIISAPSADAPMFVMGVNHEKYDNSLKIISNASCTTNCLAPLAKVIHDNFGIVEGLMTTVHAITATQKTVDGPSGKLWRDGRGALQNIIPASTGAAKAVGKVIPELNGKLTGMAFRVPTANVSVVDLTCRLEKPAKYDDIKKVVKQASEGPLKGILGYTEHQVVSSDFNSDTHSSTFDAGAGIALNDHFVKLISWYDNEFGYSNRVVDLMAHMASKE

[6] = target: Alkaline phosphatase, placental type (Homo sapiens, UniProt P05187); assay: PLAP enzyme inhibitors, confirmation, biochemical, luminescence (AID 1512); type: functional
Sequence of Alkaline phosphatase, placental type (P05187 whole entry): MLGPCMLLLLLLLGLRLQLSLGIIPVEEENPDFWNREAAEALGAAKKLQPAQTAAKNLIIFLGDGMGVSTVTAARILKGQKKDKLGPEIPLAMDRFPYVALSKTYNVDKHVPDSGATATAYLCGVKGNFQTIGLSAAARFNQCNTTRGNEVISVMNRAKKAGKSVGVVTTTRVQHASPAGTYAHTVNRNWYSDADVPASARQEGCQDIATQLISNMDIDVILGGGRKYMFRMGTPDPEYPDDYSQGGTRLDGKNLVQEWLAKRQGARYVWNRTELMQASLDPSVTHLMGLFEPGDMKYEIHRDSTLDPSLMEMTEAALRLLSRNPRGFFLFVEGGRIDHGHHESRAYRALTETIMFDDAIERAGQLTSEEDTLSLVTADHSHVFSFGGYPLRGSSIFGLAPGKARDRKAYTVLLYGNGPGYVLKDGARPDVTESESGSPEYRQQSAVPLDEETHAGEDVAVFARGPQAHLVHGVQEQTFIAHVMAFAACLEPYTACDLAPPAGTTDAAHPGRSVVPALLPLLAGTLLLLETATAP

[7] = target: T3, Alkaline phosphatase, tissue-nonspecific isozyme (Homo sapiens, UniProt P05186); assay: human TNAP enzyme inhibitors, SAR follow-up, biochemical, luminescent, dose response (AID 1056)
T3 sequence (P05186 whole entry): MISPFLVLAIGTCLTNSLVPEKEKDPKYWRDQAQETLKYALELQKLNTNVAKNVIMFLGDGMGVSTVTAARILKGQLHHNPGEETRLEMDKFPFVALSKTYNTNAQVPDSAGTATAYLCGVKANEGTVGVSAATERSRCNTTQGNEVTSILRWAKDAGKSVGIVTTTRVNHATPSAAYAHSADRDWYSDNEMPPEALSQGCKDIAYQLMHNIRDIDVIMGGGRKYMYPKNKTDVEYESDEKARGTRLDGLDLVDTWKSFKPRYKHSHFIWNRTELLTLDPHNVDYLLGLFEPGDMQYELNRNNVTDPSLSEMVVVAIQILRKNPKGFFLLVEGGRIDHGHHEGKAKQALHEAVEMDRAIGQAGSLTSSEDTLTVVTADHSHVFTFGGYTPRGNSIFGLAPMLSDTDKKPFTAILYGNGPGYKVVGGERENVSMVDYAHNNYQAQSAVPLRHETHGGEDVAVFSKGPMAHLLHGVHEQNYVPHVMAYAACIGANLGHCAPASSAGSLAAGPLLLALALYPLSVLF

[8] = target: T2, Short transient receptor potential channel 4; assay: mouse TRPC4 channel activators, dose response, cell-based, HEK293 TRPC4/mu-opioid, Fluo-4 calcium (AID 434937); type: functional
[9] = inhibitors of intracellular T. cruzi replication, confirmation, NIH3T3 host cells, beta-gal luminescence (AID 2044); type: functional, cell-based;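 note: intracellular parasites grown in NIH/3T3 mouse fibroblasts as host cells; luminescent beta-galactosidase reporter signal from transgenic T. cruzi replicating inside host cells; inhibitors lower the luminescence signal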
[10] = cytotoxicity toward NIH3T3 fibroblasts, dose response, counter-screen, cell-based, ATP luminescence, mouse fibroblasts (AID 2010); type: functional;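 note: cells exposed to compound for about 90 hours before reading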
[11] = cells
[12] = target: T4, Replicative DNA helicase DnaB (Mycobacterium tuberculosis, UniProt P9WMR3); assay: DnaB intein splicing inhibitors, dose response, biochemical, cell-free fluorescence (AID 449749); type: functional
T4 sequence (P9WMR3 whole entry): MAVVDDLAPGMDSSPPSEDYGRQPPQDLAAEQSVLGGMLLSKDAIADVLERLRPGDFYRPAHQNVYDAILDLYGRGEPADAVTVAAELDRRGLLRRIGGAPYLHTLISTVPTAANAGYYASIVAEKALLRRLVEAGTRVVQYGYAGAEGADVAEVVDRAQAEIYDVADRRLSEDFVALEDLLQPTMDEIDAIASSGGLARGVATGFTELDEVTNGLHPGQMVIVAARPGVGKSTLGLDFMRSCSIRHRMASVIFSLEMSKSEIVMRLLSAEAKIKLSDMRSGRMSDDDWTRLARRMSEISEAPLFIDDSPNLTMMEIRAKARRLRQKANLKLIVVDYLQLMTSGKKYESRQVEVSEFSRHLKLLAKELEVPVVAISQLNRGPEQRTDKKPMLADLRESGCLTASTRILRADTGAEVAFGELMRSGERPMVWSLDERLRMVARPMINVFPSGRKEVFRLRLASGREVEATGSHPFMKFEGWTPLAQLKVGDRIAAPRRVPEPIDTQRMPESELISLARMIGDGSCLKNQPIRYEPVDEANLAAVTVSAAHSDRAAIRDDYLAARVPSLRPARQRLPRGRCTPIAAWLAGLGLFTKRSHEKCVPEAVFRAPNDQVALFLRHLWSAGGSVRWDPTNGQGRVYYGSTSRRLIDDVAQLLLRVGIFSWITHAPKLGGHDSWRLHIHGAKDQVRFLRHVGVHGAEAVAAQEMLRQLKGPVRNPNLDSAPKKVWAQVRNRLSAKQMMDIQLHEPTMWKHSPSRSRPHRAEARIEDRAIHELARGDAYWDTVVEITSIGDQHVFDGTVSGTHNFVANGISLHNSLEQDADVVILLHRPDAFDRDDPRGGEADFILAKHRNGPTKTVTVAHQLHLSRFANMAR

[13] = target: T5, Protein RecA (Mycobacterium tuberculosis, UniProt P9WHJ3); assay: Fluorescence Cell-Free Homogeneous Dose Retest to Identify Inhibitors of RecA-Intein Splicing Activity. [Related pubchem assays (depositor defined):AID2097, AID2223, AID489010, AID492950]; type: functional
T5 sequence (P9WHJ3 whole entry): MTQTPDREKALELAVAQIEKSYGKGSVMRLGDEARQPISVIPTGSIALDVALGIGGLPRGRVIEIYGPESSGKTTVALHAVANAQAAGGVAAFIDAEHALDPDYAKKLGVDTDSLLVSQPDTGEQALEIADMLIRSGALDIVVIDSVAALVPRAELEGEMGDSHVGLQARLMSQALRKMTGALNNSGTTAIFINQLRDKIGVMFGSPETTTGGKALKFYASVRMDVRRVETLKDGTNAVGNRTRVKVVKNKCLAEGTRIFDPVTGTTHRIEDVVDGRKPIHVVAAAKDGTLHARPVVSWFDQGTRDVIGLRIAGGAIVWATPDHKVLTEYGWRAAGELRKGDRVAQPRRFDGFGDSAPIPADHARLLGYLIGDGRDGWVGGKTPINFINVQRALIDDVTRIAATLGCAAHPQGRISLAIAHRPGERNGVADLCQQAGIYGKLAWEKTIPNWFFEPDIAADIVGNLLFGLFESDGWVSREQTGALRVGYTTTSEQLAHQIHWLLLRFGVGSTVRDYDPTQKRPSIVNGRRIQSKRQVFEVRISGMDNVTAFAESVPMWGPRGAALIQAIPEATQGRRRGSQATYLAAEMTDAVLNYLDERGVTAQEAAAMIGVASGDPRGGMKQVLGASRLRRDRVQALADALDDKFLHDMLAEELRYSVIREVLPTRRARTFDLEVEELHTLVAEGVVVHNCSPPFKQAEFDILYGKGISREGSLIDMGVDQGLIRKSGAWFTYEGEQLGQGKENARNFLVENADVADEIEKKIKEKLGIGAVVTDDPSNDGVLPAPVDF

T1 sequence (Q00975 whole entry): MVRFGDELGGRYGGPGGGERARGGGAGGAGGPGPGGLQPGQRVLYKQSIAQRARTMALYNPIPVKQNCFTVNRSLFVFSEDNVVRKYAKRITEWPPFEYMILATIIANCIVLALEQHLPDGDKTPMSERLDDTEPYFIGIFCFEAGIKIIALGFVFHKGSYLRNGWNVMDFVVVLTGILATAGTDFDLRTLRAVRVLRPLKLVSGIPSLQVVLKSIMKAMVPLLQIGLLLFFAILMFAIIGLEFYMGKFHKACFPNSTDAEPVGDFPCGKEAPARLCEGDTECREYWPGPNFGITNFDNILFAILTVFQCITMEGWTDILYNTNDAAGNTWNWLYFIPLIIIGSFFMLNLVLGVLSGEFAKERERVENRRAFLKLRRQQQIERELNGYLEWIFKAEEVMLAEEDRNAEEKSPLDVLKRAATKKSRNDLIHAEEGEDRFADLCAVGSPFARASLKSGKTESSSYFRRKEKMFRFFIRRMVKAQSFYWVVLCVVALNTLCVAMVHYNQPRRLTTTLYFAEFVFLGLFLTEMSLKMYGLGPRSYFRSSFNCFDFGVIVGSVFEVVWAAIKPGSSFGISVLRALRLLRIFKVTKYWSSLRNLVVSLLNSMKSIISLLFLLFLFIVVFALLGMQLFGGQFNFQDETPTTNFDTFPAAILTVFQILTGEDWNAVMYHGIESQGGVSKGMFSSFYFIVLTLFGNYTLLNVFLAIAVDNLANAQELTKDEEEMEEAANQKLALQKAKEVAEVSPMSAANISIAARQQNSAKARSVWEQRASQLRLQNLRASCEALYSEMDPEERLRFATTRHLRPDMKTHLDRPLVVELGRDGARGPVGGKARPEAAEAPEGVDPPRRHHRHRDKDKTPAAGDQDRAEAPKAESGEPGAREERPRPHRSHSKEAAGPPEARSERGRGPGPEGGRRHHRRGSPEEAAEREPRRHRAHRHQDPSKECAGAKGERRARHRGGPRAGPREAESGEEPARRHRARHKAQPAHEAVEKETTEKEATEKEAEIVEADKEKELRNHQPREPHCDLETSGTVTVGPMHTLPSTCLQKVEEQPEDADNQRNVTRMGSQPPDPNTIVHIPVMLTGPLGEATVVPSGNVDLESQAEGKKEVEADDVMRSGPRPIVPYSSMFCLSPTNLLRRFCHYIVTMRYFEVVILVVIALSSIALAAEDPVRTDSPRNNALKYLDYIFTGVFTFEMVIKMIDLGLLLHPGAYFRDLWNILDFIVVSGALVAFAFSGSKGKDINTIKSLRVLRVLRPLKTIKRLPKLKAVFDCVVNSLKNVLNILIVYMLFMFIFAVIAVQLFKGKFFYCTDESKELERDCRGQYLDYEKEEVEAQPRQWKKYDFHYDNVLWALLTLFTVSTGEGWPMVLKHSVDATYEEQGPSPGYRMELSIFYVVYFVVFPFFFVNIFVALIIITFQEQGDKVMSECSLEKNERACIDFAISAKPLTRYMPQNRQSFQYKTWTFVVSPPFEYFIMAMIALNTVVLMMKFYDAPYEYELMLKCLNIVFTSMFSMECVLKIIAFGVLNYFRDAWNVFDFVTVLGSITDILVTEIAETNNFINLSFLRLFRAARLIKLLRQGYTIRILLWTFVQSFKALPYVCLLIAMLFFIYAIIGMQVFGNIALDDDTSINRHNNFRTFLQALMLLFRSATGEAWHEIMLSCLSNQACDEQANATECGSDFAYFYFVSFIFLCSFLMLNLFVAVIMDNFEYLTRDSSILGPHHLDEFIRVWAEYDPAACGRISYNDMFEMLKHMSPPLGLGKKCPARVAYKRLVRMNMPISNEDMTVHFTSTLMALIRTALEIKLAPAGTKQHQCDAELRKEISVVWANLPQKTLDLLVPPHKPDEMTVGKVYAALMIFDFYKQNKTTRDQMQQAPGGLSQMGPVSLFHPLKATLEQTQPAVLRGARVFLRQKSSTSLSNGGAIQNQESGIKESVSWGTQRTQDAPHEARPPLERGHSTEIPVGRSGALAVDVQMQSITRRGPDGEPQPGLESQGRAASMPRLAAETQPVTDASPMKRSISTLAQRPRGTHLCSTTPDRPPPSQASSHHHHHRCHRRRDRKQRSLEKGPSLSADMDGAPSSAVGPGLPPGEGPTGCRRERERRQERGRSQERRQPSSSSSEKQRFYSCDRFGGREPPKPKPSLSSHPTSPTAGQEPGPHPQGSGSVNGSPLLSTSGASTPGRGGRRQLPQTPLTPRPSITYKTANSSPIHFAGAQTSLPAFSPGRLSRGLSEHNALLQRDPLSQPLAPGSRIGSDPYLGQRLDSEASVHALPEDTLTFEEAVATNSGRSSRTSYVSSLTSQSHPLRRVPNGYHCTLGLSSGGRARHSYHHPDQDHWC
T1 sequence (Q02410 whole entry): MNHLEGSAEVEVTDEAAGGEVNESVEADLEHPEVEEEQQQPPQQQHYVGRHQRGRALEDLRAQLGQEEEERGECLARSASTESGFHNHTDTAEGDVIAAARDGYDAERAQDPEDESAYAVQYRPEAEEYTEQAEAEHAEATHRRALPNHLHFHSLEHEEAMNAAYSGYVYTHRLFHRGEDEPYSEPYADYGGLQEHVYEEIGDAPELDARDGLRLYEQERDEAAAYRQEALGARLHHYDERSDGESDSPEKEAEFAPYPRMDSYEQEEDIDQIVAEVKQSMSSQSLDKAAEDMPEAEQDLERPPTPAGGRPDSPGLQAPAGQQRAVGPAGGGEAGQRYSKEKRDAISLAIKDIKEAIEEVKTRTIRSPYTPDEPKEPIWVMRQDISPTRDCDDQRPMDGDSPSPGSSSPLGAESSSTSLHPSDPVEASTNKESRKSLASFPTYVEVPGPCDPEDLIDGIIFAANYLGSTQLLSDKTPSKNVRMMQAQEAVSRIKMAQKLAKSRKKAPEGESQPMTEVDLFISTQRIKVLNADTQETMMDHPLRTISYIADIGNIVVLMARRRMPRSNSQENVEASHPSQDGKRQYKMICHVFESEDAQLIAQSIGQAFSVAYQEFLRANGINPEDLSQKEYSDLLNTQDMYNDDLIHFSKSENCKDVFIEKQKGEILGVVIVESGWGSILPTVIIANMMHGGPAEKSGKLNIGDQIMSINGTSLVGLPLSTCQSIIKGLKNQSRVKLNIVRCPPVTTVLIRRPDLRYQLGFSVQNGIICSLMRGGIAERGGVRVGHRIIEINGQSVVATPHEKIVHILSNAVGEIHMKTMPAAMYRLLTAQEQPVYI

Compound	EC50 [3]	IC50 [5]	IC50 [6]	IC50 [7]	also measured
O=C(O)Cc1sc(Nc2ccc(Cl)cc2)nc1-c1cccs1	–	–	–	–	IC50 [1]: 16 µM (active); IC50 [2]: > 50 µM (inactive)
O=C(Cc1cccc2ccccc12)Nc1ccc(Br)cc1C(=O)O	5.96 µM (active)	–	–	–	IC50 [4]: > 25 µM (active)
CC1(C)CC(=O)c2c(-c3ccc(Cl)cc3)n[nH]c2C1	–	> 100 µM (not active)	> 100 µM (inactive)	5.02 µM (active)	–
Nc1nnc(-c2ccc(Cl)cc2)[nH]1	–	> 100 µM (not active)	> 100 µM (inactive)	24.5 µM (active)	–
CN1CSC2=C(C#N)C(c3cccc(OCc4ccccc4)c3)CC(=O)N2C1 (configuration not stated)	–	–	–	–	IC50 [1]: 7.59 µM (active); IC50 [2]: 47.6 µM (active)
Cc1ccccc1C(=O)Nc1c(C(=O)N(CCN(C)C)Cc2ccco2)oc2ccccc12	0.473 µM (active)	–	–	–	EC50 [8]: 4.22 µM (active)
COc1ccccc1/C=C/CN1CCCC(CCC(=O)NCc2ccc(F)c(F)c2)C1 (configuration not stated)	–	–	–	–	EC50 [9]: < 0.1 µM (active); EC50 [10]: > 60 µM (not active); EC50 [8]: 0.168 µM (active); EC50 [11]: 0.043 µM (active)
COc1ccc(-c2n[nH]c3c2C(=O)CC(C)(C)C3)cc1	–	> 100 µM (not active)	> 100 µM (inactive)	3.57 µM (active)	–
Cn1ncc2c1ncn1c(-c3ccc(Cl)cc3Cl)nnc21	–	> 100 µM (not active)	> 100 µM (inactive)	> 100 µM (inactive)	–
Cc1[nH]n(C)c(=O)c1C(=O)c1c(-c2c(Cl)cccc2Cl)noc1C	4.22 µM (active)	–	–	–	AC50 [12]: 5.13 µM (active); EC50 [13]: 1.71 µM (active)
